Reference: ChEMBL document CHEMBL5512632, “Unlocking the potential of 1,4-naphthoquinones: A comprehensive review of their anticancer properties” (Eur J Med Chem, 2024)
Blank lines part the entries; values can stand above or below the compound they belong to.

Legend:
Calu-1 = assay: Cytotoxicity against human Calu-1 cells incubated for 48 hrs by MTT assay; format: functional, cell-based; conditions: Calu-1, 48 h
HEC-1-A = assay: Cytotoxicity against human HEC-1-A cells incubated for 48 hrs by MTT assay; format: functional, cell-based
SK-MEL-28 = assay: Cytotoxicity against human SK-MEL-28 cells incubated for 48 hrs by MTT assay; format: functional, cell-based; conditions: SK-MEL-28, 48 h
MOLT-3 = assay: Cytotoxicity against human MOLT-3 cells incubated for 48 hrs by XTT assay; format: functional, cell-based; conditions: MOLT-3, 48 h
MDA-MB-231 = assay: Cytotoxicity against human MDA-MB-231 cells incubated for 48 hrs by XTT assay; format: functional, cell-based; conditions: MDA-MB-231, 48 h
A549 [1] = assay: Cytotoxicity against human A549 cells incubated for 20 hrs by MTT assay; format: functional, cell-based; conditions: A549, 20 h
MCF7 [2] = assay: Growth inhibition of human MCF7 cells by Sulforhodamine B assay; format: functional
PC-3 = assay: Growth inhibition of human PC-3 cells by Sulforhodamine B assay; format: functional
UACC-62 = assay: Growth inhibition of human UACC-62 cells by Sulforhodamine B assay; format: functional
TK-10 = assay: Growth inhibition of human TK-10 cells by Sulforhodamine B assay; format: functional
HT-29 = assay: Antiproliferative activity against human HT-29 cells assessed as reduction in cell viability incubated for 24 hrs by MTT assay; format: functional, cell-based; conditions: HT-29, 24 h
A549 [3] = assay: Antiproliferative activity against human A549 cells assessed as inhibition of cell growth incubated for 24 hrs by trypan blue exclusion assay; format: functional, cell-based; conditions: A549, 24 h
Hep 3B2 = assay: Antiproliferative activity against human Hep3B cells assessed as inhibition of cell growth incubated for 24 hrs by MTT assay; format: functional, cell-based
Huh-7 = assay: Antiproliferative activity against human Huh-7 cells assessed as inhibition of cell growth incubated for 24 hrs by MTT assay; format: functional, cell-based; conditions: Huh-7, 24 h
HepG2 = assay: Antiproliferative activity against human HepG2 cells assessed as inhibition of cell growth incubated for 24 hrs by MTT assay; format: functional, cell-based; conditions: HepG2, 24 h
[4] = Antiproliferative activity against human LA-N-1 cells assessed as inhibition of cell growth incubated for 48 hrs by MTT assay; format: functional, cell-based; conditions: LAN1, 48 h
IMR-32 = assay: Antiproliferative activity against human IMR-32 cells assessed as inhibition of cell growth incubated for 48 hrs by MTT assay; format: functional, cell-based; conditions: IMR-32, 48 h
SK-N-SH = assay: Antiproliferative activity against human SK-N-SH cells assessed as inhibition of cell growth incubated for 48 hrs by MTT assay; format: functional, cell-based
[5] = Antiproliferative activity against human NB-39-nu cells assessed as inhibition of cell growth incubated for 48 hrs by MTT assay; format: functional, cell-based
A549 [6] = assay: Cytotoxicity against human A549 cells assessed as inhibition of cell growth incubated for 48 hrs by MTT assay; format: functional, cell-based; conditions: A549, 48 h
MCF7 [7] = assay: Cytotoxicity against human MCF7 cells assessed as inhibition of cell growth incubated for 48 hrs by MTT assay; format: functional, cell-based; conditions: MCF7, 48 h
DU-145 [8] = assay: Cytotoxicity against human DU-145 cells assessed as inhibition of cell growth incubated for 48 hrs by MTT assay; format: functional, cell-based; conditions: DU-145, 48 h
B16 = assay: Cytotoxicity against mouse B16 cells assessed as inhibition of cell growth incubated for 48 hrs by MTT assay; format: functional, cell-based; conditions: B16, 48 h
HeLa [9] = assay: Cytotoxicity against human HeLa cells assessed as inhibition of cell growth incubated for 48 hrs by MTT assay; format: functional, cell-based
A549 [10] = assay: Antiproliferative activity against human A549 cells assessed as inhibition of cell growth incubated for 24 hrs by celltiter blue reagent based fluorimetric analysis; format: functional; conditions: A549, 24 h
RD = assay: Antiproliferative activity against human RD cells assessed as inhibition of cell growth incubated for 24 hrs by celltiter blue reagent based fluorimetric analysis; format: functional
DU-145 [11] = assay: Antiproliferative activity against human DU-145 cells assessed as inhibition of cell growth incubated for 24 hrs by celltiter blue reagent based fluorimetric analysis; format: functional; conditions: DU-145, 24 h
HeLa [12] = assay: Antiproliferative activity against human HeLa cells assessed as inhibition of cell growth incubated for 24 hrs by sulforhodamine B assay; format: functional, cell-based
SCC-25 = assay: Cytotoxicity against human SCC-25 cells assessed as inhibition of cell growth incubated for 48 hrs by MTT reagent based spectrophotometric analysis; format: functional; conditions: SCC-25, 48 h
SCC-4 = assay: Cytotoxicity against human SCC-4 cells assessed as inhibition of cell growth incubated for 48 hrs by MTT reagent based spectrophotometric analysis; format: functional; conditions: SCC-4, 48 h
SCC-9 = assay: Cytotoxicity against human SCC-9 cells assessed as inhibition of cell growth incubated for 48 hrs by MTT reagent based spectrophotometric analysis; format: functional; conditions: SCC-9, 48 h
C-33-A = assay: Antiproliferative activity against human C-33-A cells assessed as inhibition of cell growth by crystal violet staining based spectrophotometric assay; format: functional
SiHa = assay: Antiproliferative activity against human SiHa cells assessed as inhibition of cell growth by crystal violet staining based spectrophotometric assay; format: functional
[13] = Antiproliferative activity against human CaLo cells assessed as inhibition of cell growth by crystal violet staining based spectrophotometric assay; format: functional

SMILES: O=C1C(Cl)=C(NCCN2CCOCC2)C(=O)c2ccccc21
IC50 (Calu-1): 4.39 µM | IC50 (HEC-1-A): 14.5 µM | IC50 (SK-MEL-28): 10.3 µM

SMILES: Cc1ccc(NC2=C(Cl)C(=O)c3ccccc3C2=O)cc1
IC50 (MOLT-3): 4.3 µM | IC50 (MDA-MB-231): 10.7 µM

SMILES: O=C1C(Cl)=C(Nc2ccccc2)C(=O)c2ccccc21
IC50 (A549 [1]): 5.8 µM

SMILES: O=C1C(Sc2ccc3ccccc3c2)=C(Sc2ccc3ccccc3c2)C(=O)c2ccccc21
GI50 (MCF7 [2]): 7.75 µM | GI50 (PC-3): 7.21 µM | GI50 (UACC-62): 9.92 µM | GI50 (TK-10): 8.26 µM

SMILES: CCc1ccc(-c2cn(CCNC3=C(C)C(=O)c4ccccc4C3=O)nn2)cc1
IC50 (A549 [6]): 9.19 µM | IC50 (MCF7 [7]): 8.73 µM | IC50 (DU-145 [8]): 8.02 µM | IC50 (B16): 20.2 µM | IC50 (HeLa [9]): 26.2 µM

SMILES: COC(=O)N(Cc1ccccc1)C(C1=C(O)C(=O)c2ccccc2C1=O)c1ccc(Cl)cc1 (centres undefined)
IC50 (SCC-25): 87.3 µM | IC50 (SCC-4): 92.8 µM | IC50 (SCC-9): 56.2 µM

SMILES: O=C1C(Cl)=C(NC(Cc2ccc(O)cc2)C(=O)O)C(=O)c2ccccc21 (centres undefined)
IC50 (C-33-A): 0.001 µM | IC50 (SiHa): 6.83 µM | IC50 [13]: 2.87 µM

Continued, in another order:

IC50 (HT-29): 3.2 µM
SMILES: CCOC(=O)c1cn(C2=CC(=O)c3ccccc3C2=O)nn1

IC50 (A549 [3]): 2.08 µM
SMILES: CCCC[S+]([O-])C1=CC(=O)c2ccccc2C1=O (centres undefined)

IC50 (Huh-7): 1.96 µM | IC50 (HepG2): 8.56 µM
SMILES: CCCCCCCC[S+]([O-])C1=CC(=O)c2ccccc2C1=O (centres undefined)
IC50 (Hep 3B2): 0.96 µM

IC50 (SK-N-SH): 3.45 µM
SMILES: COCCSC1=C(C)C(=O)c2ccccc2C1=O
IC50 [4]: 1.55 µM | IC50 (IMR-32): 2.43 µM | IC50 [5]: 10.7 µM

IC50 (A549 [10]): 0.5 µM | IC50 (DU-145 [11]): 0.4 µM
SMILES: O=C1C=C(CCCCCCCCCC[P+](c2ccccc2)(c2ccccc2)c2ccccc2)C(=O)c2ccccc21
IC50 (RD): 0.02 µM

IC50 (HeLa [12]): 3.2 µM
SMILES: O=C1C(Cl)=C(Nc2ccc(O)cc2)C(=O)c2ccccc21
